Laboratory results from PubChem BioAssay AID549 (SRMLSC, 2006).
Activity calls are given as the source filed them.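 The calls were made as follows: active = clearly stronger inhibition of phosphomevalonate kinase than of the coupling enzymes alone in a parallel counterscreen; inactive = the rest.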

Target: phosphomevalonate kinase (Streptococcus pneumoniae D39)
Test: S. pneumoniae PMK inhibitor potency, dose response, biochemical, mevalonate pathway, coupling enzyme counter-screen (AID 549)
Settings: PK/LDH coupled NADH absorbance 340 nm

| SMILES | outcome |
| --- | --- |
| CC(C)COC(=O)n1ccc(C(=O)N2CCCCC2)n1 | inactive |
| CC(CN1CCN(C)CC1)OC(=O)c1ccc(Cl)cc1 (configuration not stated) | inactive |
| Cc1ccc(NC(=O)CSc2nnc(Cn3c(=O)sc4ccccc43)n2C)cc1Cl | inactive |
| CC(C)CCn1nnnc1C(c1ccc(F)cc1)N1CCN(C(=O)c2ccco2)CC1 (configuration not stated) | inactive |
| CCCOc1ccc(C2C(=O)N(C3CCCCC3)CC(=O)N2CCCOCC)cc1OC (configuration not stated) | inactive |
| COc1ccc(NC2CC(=O)NC2=O)cc1 (configuration not stated) | inactive |
| O=C(NCCCNC(=O)c1ccccn1)c1ccccn1 | inactive |
| CCOC(=O)CCn1c2nc(C)cc(C)c2c(=O)n1-c1ccccc1 | inactive |
| CC(C)=CC(=O)Nc1ccc(Br)cc1 | inactive |
| Cc1nnc(SCC(=O)N2CC(=O)Nc3ccccc32)n1-c1ccccc1 | inactive |
| Cc1ccc(C(c2nnnn2CC2CCCO2)N2CCN(C(=O)c3ccco3)CC2)cc1 (configuration not stated) | inactive |
| COc1ccc(C(=O)Nc2ccccc2C(=O)NC(C(=O)NCc2ccco2)C(C)C)cc1 (configuration not stated) | inactive |
| O=C(c1ccc(CS(=O)(=O)Cc2ccc(Cl)cc2)o1)N1CCCC1 | inactive |
| CCC(C)(C)NC(=O)C(c1ccccc1F)N(Cc1ccco1)C(=O)c1csnn1 (configuration not stated) | inactive |
| CC1SC(=NC(=O)c2ccco2)NC1=O (configuration not stated) | inactive |
| COc1ccc(OC)c(NC(=O)CNC(=O)Cn2ccc3ccccc3c2=O)c1 | inactive |
| CCCCS(=O)(=O)C(=C1Nc2ccccc2N1)S(=O)(=O)CCCC | inactive |
| Cc1ccnc(N2CCC(C(=O)Nc3ccc(Oc4ccccc4)cc3)CC2)n1 | inactive |
| COc1ccc(N2CCN(C(c3ccco3)c3sc4nc(C)nn4c3O)CC2)cc1 (configuration not stated) | inactive |
| CC(c1ccccc1)C(CC(=O)O)C(=O)NC1CCCCC1 (configuration not stated) | inactive |
| CCOC(=O)c1ccc(NC(=O)CSc2nc(C)cc(=O)[nH]2)cc1 | inactive |
| CCOC(=O)CC(=O)CSc1nnc2c(n1)[nH]c1ccccc12 | inactive |
| CNC(=O)Cn1ncc2c(C)n(Cc3ccc(C)cc3)c(C)c2c1=O | inactive |
| CCOC(=O)N1CCN(C(=O)C2CCN(S(=O)(=O)N3CCCC3)CC2)CC1 | inactive |
| CCc1nnc(NC(=O)c2cccs2)s1 | inactive |
| CCCCNc1nc2c(c(=O)n(C)c(=O)n2C)n1CCC | inactive |

| SMILES | outcome |
| --- | --- |
| O=C(CCSc1nc(-c2ccc3c(c2)OCO3)cc(C(F)(F)F)n1)NCc1ccco1 | inactive |
| N#CC(C(=O)NC1CCCCC1)c1nc2ccccc2nc1N1CCCCC1 (configuration not stated) | inactive |
| OCCNCC1(O)C2CC3CC(C2)CC1C3 (configuration not stated) | inactive |
| CCOc1ccc(C2c3c(oc4cc(C)c(C)cc4c3=O)C(=O)N2CCCN(C)C)cc1OC (configuration not stated) | inactive |
| CC(C)CN(CC(C)C)S(=O)(=O)N1CCC(C(=O)NC2CCCCCCC2)CC1 | inactive |
| O=C(CNC(=O)c1cccs1)NCCN1CCN(c2ccccc2F)CC1 | inactive |
| COc1ccc2c(c1)c(C(=O)CNc1nc(C)cs1)c(C)n2C | inactive |
| O=C(NCc1ccc2c(c1)OCO2)c1cc2n(n1)C(C(F)(F)F)CC(c1ccc3c(c1)OCO3)N2 (configuration not stated) | inactive |
| CCOC(=O)C1=C(C)Nc2ccccc2N=C1NC(=O)CCCN1C(=O)c2ccccc2C1=O | inactive |
| O=C(Nc1c(-c2ccccc2)nc2sccn12)c1ccccc1 | inactive |
| COCCNC(=O)c1ccc2c(c1)NC(=O)CS2 | inactive |
| CC(C)OC(=O)c1cccnc1SCc1cc(=O)n2ccccc2n1 | inactive |
| Cc1nc2ccccc2n2c(O)c(CC(=O)O)cc12 | inactive |
| COc1ccccc1CNC(=O)C1CCN(S(=O)(=O)N2CC(C)CC(C)C2)CC1 (configuration not stated) | inactive |
| O=C(c1ccc2ccccc2c1)N1CCN(c2ccc(O)cc2)CC1 | inactive |
| NC(=O)CCN(Cc1ccccc1)S(=O)(=O)c1ccccc1 | inactive |
| Cc1nnc(SCC(=O)Nc2ncc(Cc3ccc(F)cc3)s2)n1N | inactive |
| CCOCC(=O)NC1CCSC1=O (configuration not stated) | inactive |
| O=C(COC(=O)c1ccco1)NC1CCCCC1 | inactive |
| Cn1nc(CC(=O)Nc2ncc(Br)s2)c2ccccc2c1=O | inactive |
| CC12C=CC3(CN(Cc4ccccc4)C(=O)C3C1C(=O)NC1CC1)O2 (configuration not stated) | inactive |
| COc1ccc(C(=O)Nc2ccncc2)cc1OC | inactive |
| CCOC(=O)C1=C(N)OC2=C(C(=O)CCC2)C1c1ccc(C)s1 (configuration not stated) | inactive |
| COCCCNC(=O)C1C2C=CC3(CN(Cc4ccc(C)cc4)C(=O)C13)O2 (configuration not stated) | inactive |
| COc1ccc(N2C(C)=CS/C2=C(/C#N)c2nnc(N3CCOCC3)n2-c2ccccc2)cc1 | inactive |
| O=C(CSCc1cccc(F)c1)N1CCN(c2ccccc2)CC1 | inactive |

| SMILES | outcome |
| --- | --- |
| O=C(Cn1cc(C(F)(F)F)ccc1=O)N1CCN(S(=O)(=O)c2ccccc2)CC1 | inactive |
| CCn1c2ccccc2c2cc(CN3CCN(C(=O)c4ccco4)CC3)ccc21 | inactive |
| Cc1nc(SC2C=CS(=O)(=O)C2)n[nH]1 (configuration not stated) | inactive |
| CC(=O)c1ccc(Oc2ncnc3sccc23)c(CN2CCOCC2)c1 | inactive |
| Cc1n[nH]c(C)c1N1C(=O)c2cccc3c(N4CCCCCC4)ccc(c23)C1=O | inactive |
| CS(=O)(=O)N(CC(=O)N1CCN(c2ccccc2)CC1)C1CCCCC1 | inactive |
| CCOc1ccc(CNC(=O)C2CCN(S(=O)(=O)N3CCCC3)CC2)cc1OC | inactive |
| O=c1oc2ccccc2n1CCn1c2ccccc2c2nc3ccccc3nc21 | inactive |
| O=c1c[n+]([O-])c2ccccc2n1OCc1c(F)cccc1F | inactive |
| COc1ccc(-c2cc3nc(C)c(CCC(=O)N4CCCCC4)c(C)n3n2)c(OC)c1 | inactive |
| CCN1C(=O)/C(=C2/Sc3ccc(OC)cc3N2C)SC1=Nc1ccc(C(C)=O)cc1 | inactive |
| CCOC(=O)c1c(C)n(C)c2ccc(OC)c(NS(=O)(=O)c3ccc(Cl)s3)c12 | inactive |
| Clc1ccc(C(c2nnnn2C2CCCC2)N2CCN(Cc3ccncc3)CC2)cc1 (configuration not stated) | inactive |
| Cc1cccc(-n2nc3c(c2NC(=O)c2ccco2)CSC3)c1C | inactive |
| COc1cc(OC)nc(NC(=O)NS(=O)(=O)c2ccc(OC(F)(F)F)cc2)n1 | inactive |
| COc1ccccc1-n1c(SCC(=O)N2CCCCC2)nnc1-c1ccccc1O | inactive |
| COc1ccc(C2C(=O)N(C3CCCCC3)CC(=O)N2CCc2ccccc2)cc1OC (configuration not stated) | inactive |
| CC1(C)CC(=O)c2cc(OCC(=O)N3CCN(c4ccccc4F)CC3)ccc2O1 | inactive |
| O=C(Nc1ccc(F)cc1)N(CCCN1CCOCC1)Cc1cc2cc3c(cc2[nH]c1=O)OCO3 | inactive |
| C=CCSc1nnc(Cn2c(=O)sc3ccccc32)n1C | inactive |
| Cc1occc1-c1nnc(SCC(=O)N2CCOCC2)n1Cc1ccco1 | inactive |
| CCC1CCCCN1CCCNC(=O)Cn1nc(-c2ccccc2)ccc1=O (configuration not stated) | inactive |
| CS(=O)(=O)N1CCCC(C(=O)NCCc2ccc(Cl)cc2)C1 (configuration not stated) | inactive |
| CC1(C)CC(C)(O)P(=O)(c2ccccc2)O1 (configuration not stated) | inactive |
| COc1ccc(S(=O)(=O)N2CCN(C3CCCCCCC3)CC2)cc1 | inactive |
